Reference: patent US12077503B2, “Substituted cyclic amides and their use as herbicides” (FMC CORPORATION, priority 2015, dated 2024)

How the values were obtained:
Type in all cases: in vivo
[1] = test system: Kochia (Kochia scoparia); experiment: Test A preemergence; settings: preemergence
How it was run: (§1)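 Visual injury scores from 0, no effect, to 100, complete control, were assigned versus untreated controls roughly 10 d after treatment in the greenhouse. Test chemicals, formulated with surfactant in a non-phytotoxic solvent, were applied to planted seeds as a preemergence soil spray or postemergence to one- to two-leaf plants 2 to 10 cm tall, in loam–sand soil.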

[2] = test system: barnyardgrass (Echinochloa crus-galli); experiment: Test A preemergence; settings: preemergence
How it was run: as §1

[3] = test system: giant foxtail (Setaria faberii); experiment: Test A preemergence; settings: preemergence
How it was run: as §1

[4] = test system: pigweed (Amaranthus retroflexus); experiment: Test A preemergence; settings: preemergence
[5] = test system: ragweed (common ragweed, Ambrosia elatior); experiment: Test A preemergence; settings: preemergence
How it was run: as §1

[6] = test system: ryegrass, Italian (Italian ryegrass, Lolium multiflorum); experiment: Test A preemergence; settings: preemergence
How it was run: as §1

[7] = test system: Galium (catchweed bedstraw, Galium aparine); experiment: Test A postemergence; settings: postemergence, 0 to 100 scale (0 no effect, 100 complete control)
How it was run: as §1

[8] = test system: Kochia (Kochia scoparia); experiment: Test A postemergence; settings: postemergence, 0 to 100 scale (0 no effect, 100 complete control)
How it was run: as §1

[9] = test system: barnyardgrass (Echinochloa crus-galli); experiment: Test A postemergence; settings: postemergence, 0 to 100 scale (0 no effect, 100 complete control)
How it was run: as §1

[10] = test system: blackgrass (Alopecurus myosuroides); experiment: Test A postemergence; settings: postemergence, 0 to 100 scale (0 no effect, 100 complete control)
How it was run: as §1

[11] = test system: corn (Zea mays); experiment: Test A postemergence; settings: postemergence, 0 to 100 scale (0 no effect, 100 complete control)
How it was run: as §1

[12] = test system: giant foxtail (Setaria faberii); experiment: Test A postemergence; settings: postemergence, 0 to 100 scale (0 no effect, 100 complete control)
How it was run: as §1

[13] = test system: pigweed (Amaranthus retroflexus); experiment: Test A postemergence; settings: postemergence, 0 to 100 scale (0 no effect, 100 complete control)
How it was run: as §1

[14] = test system: ragweed (common ragweed, Ambrosia elatior); experiment: Test A postemergence; settings: postemergence, 0 to 100 scale (0 no effect, 100 complete control)
How it was run: as §1

[15] = test system: ryegrass, Italian (Italian ryegrass, Lolium multiflorum); experiment: Test A postemergence; settings: postemergence, 0 to 100 scale (0 no effect, 100 complete control)
How it was run: as §1

[16] = test system: wheat (Triticum aestivum); experiment: Test A postemergence; settings: postemergence, 0 to 100 scale (0 no effect, 100 complete control)
How it was run: as §1

[17] = test system: barnyardgrass (Echinochloa crus-galli); experiment: Test B flooded paddy test; settings: Flood, 500 g ai/ha; 0 to 100 scale where 0 is no effect and 100 is complete control; 13 to 15 d
How it was run: (§2)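 Rating scale 0–100 (visual, vs untreated controls) after a 13–15 d greenhouse period; application to the flood layer, 3 cm above soil and maintained; plants at 2-leaf stage when treated.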

[18] = test system: ducksalad (Heteranthera limosa); experiment: Test B flooded paddy test; settings: Flood, 500 g ai/ha; 0 to 100 scale where 0 is no effect and 100 is complete control; 13 to 15 d
How it was run: as §2

[19] = test system: rice (Oryra sativa); experiment: Test B flooded paddy test; settings: Flood, 500 g ai/ha; 0 to 100 scale where 0 is no effect and 100 is complete control; 13 to 15 d
How it was run: as §2

[20] = test system: sedge, umbrella (small-flower umbrella sedge, Cyperus difformis); experiment: Test B flooded paddy test; settings: Flood, 500 g ai/ha; 0 to 100 scale where 0 is no effect and 100 is complete control; 13 to 15 d
How it was run: as §2

[21] = 125 g ai/ha, visual rating after approx. 10 d, 0 to 100 scale where 0 is no effect and 100 is complete control
[22] = 500 g ai/ha, 0 to 100 scale, 0 = no effect, 100 = complete control
[23] = 125 g ai/ha, visual injury after approximately 10 d
[24] = 500 g ai/ha, visual injury, approx. 10 d

O=C1NCC(c2cccc3ccccc23)C1C(=O)Nc1cccc(F)c1F (racemic) [Compound 711]
0: Plant response rating, Kochia [1, 21] | Plant response rating, Kochia [1, 22] | Plant response rating, Barnyardgrass [2, 21] | Plant response rating, Barnyardgrass [2, 22] | Plant response rating, Foxtail, Giant [3, 21] | Plant response rating, Foxtail, Giant [3, 22] | Plant response rating, Pigweed [4, 21] | Plant response rating, Pigweed [4, 22] | Plant response rating, Ragweed [5, 21] | Plant response rating, Ragweed [5, 22] | Plant response rating, Ryegrass, Italian [6, 21] | Plant response rating, Ryegrass, Italian [6, 22] | Plant response rating, Galium [7, 23] | Plant response rating, Galium [7, 24] | Plant response rating, Kochia [8, 23] | Plant response rating, Kochia [8, 24] | Plant response rating, Barnyardgrass [9, 23] | Plant response rating, Barnyardgrass [9, 24] | Plant response rating, Blackgrass [10, 23] | Plant response rating, Blackgrass [10, 24] | Plant response rating, Corn [11, 23] | Plant response rating, Corn [11, 24] | Plant response rating, Foxtail, Giant [12, 23] | Plant response rating, Foxtail, Giant [12, 24] | Plant response rating, Pigweed [13, 23] | Plant response rating, Pigweed [13, 24] | Plant response rating, Ragweed [14, 23] | Plant response rating, Ragweed [14, 24] | Plant response rating, Ryegrass, Italian [15, 23] | Plant response rating, Ryegrass, Italian [15, 24] | Plant response rating, Wheat [16, 23] | Plant response rating, Wheat [16, 24] | Plant response rating, Barnyardgrass [17] | Plant response rating, Rice [19] | Plant response rating, Sedge, Umbrella [20]
60: Plant response rating, Ducksalad [18]

O=C1NCC(c2cccc3ccccc23)C1C(=O)Nc1ccccc1C(F)(F)F (racemic) [Compound 712]
0: Plant response rating, Kochia [1, 21] | Plant response rating, Kochia [1, 22] | Plant response rating, Barnyardgrass [2, 21] | Plant response rating, Barnyardgrass [2, 22] | Plant response rating, Foxtail, Giant [3, 21] | Plant response rating, Foxtail, Giant [3, 22] | Plant response rating, Pigweed [4, 21] | Plant response rating, Pigweed [4, 22] | Plant response rating, Ragweed [5, 21] | Plant response rating, Ragweed [5, 22] | Plant response rating, Ryegrass, Italian [6, 21] | Plant response rating, Ryegrass, Italian [6, 22] | Plant response rating, Galium [7, 23] | Plant response rating, Galium [7, 24] | Plant response rating, Kochia [8, 23] | Plant response rating, Kochia [8, 24] | Plant response rating, Barnyardgrass [9, 23] | Plant response rating, Barnyardgrass [9, 24] | Plant response rating, Blackgrass [10, 23] | Plant response rating, Blackgrass [10, 24] | Plant response rating, Corn [11, 23] | Plant response rating, Corn [11, 24] | Plant response rating, Foxtail, Giant [12, 23] | Plant response rating, Foxtail, Giant [12, 24] | Plant response rating, Pigweed [13, 23] | Plant response rating, Pigweed [13, 24] | Plant response rating, Ragweed [14, 23] | Plant response rating, Ragweed [14, 24] | Plant response rating, Ryegrass, Italian [15, 23] | Plant response rating, Ryegrass, Italian [15, 24] | Plant response rating, Wheat [16, 23] | Plant response rating, Wheat [16, 24] | Plant response rating, Barnyardgrass [17] | Plant response rating, Ducksalad [18] | Plant response rating, Rice [19] | Plant response rating, Sedge, Umbrella [20]
